Test results from paper PMC7156458, “Synthetic biology based construction of biological activity-related library of fungal decalin-containing diterpenoid pyrones” (Nature Communications, 2020).

Molecular target: Aβ42 (Homo sapiens, UniProt P05067)
Assay: Th-T (thioflavin-T) assay of Aβ42 aggregation
Type: biochemical
Settings: for Th-T fluorescence, mean of three wells: compound at 50

Sequence of Aβ42 (P05067 672-713): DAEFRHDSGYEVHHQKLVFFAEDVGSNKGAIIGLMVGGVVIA

## C=C1CCC2C(C)(CCC=C(C)C)C(O)CCC2(C)C1Cc1c(OC)oc(CO)c(C(=O)OC)c1=O (stereo not drawn) [Compound 13]
Reading M54 of time course
  Th-T fluorescence, mean of three wells: 0.4653
Reading M55 of time course
  Th-T fluorescence, mean of three wells: 0.4661
Reading M56 of time course
  Th-T fluorescence, mean of three wells: 0.4654
Reading M57 of time course
  Th-T fluorescence, mean of three wells: 0.4695
Reading M58 of time course
  Th-T fluorescence, mean of three wells: 0.4698
Reading M59 of time course
  Th-T fluorescence, mean of three wells: 0.4665
Reading M60 of time course
  Th-T fluorescence, mean of three wells: 0.4689
Reading M61 of time course
  Th-T fluorescence, mean of three wells: 0.471
Reading M62 of time course
  Th-T fluorescence, mean of three wells: 0.4707
Concentration 10, unit not given, time-course reading M129
  Th-T fluorescence of Aβ42 with compound, mean of three wells (Fig. 7a source data): 1.537
Concentration 10, unit not given, time-course reading M130
  Th-T fluorescence of Aβ42 with compound, mean of three wells (Fig. 7a source data): 1.546
Concentration 10, unit not given, time-course reading M131
  Th-T fluorescence of Aβ42 with compound, mean of three wells (Fig. 7a source data): 1.547
Concentration 10, unit not given, time-course reading M132
  Th-T fluorescence of Aβ42 with compound, mean of three wells (Fig. 7a source data): 1.542
Concentration 10, unit not given, time-course reading M133
  Th-T fluorescence of Aβ42 with compound, mean of three wells (Fig. 7a source data): 1.541
Concentration 10, unit not given, time-course reading M134
  Th-T fluorescence of Aβ42 with compound, mean of three wells (Fig. 7a source data): 1.54
Concentration 10, unit not given, time-course reading M135
  Th-T fluorescence of Aβ42 with compound, mean of three wells (Fig. 7a source data): 1.5371
Concentration 10, unit not given, time-course reading M136
  Th-T fluorescence of Aβ42 with compound, mean of three wells (Fig. 7a source data): 1.543
Concentration 10, unit not given, time-course reading M137
  Th-T fluorescence of Aβ42 with compound, mean of three wells (Fig. 7a source data): 1.53
Concentration 10, unit not given, time-course reading M138
  Th-T fluorescence of Aβ42 with compound, mean of three wells (Fig. 7a source data): 1.542
Concentration 10, unit not given, time-course reading M139
  Th-T fluorescence of Aβ42 with compound, mean of three wells (Fig. 7a source data): 1.54
Concentration 10, unit not given, time-course reading M140
  Th-T fluorescence of Aβ42 with compound, mean of three wells (Fig. 7a source data): 1.544
Concentration 10, unit not given, time-course reading M141
  Th-T fluorescence of Aβ42 with compound, mean of three wells (Fig. 7a source data): 1.531
Concentration 10, unit not given, time-course reading M142
  Th-T fluorescence of Aβ42 with compound, mean of three wells (Fig. 7a source data): 1.539
Concentration 10, unit not given, time-course reading M143
  Th-T fluorescence of Aβ42 with compound, mean of three wells (Fig. 7a source data): 1.544
Concentration 10, unit not given, time-course reading M144
  Th-T fluorescence of Aβ42 with compound, mean of three wells (Fig. 7a source data): 1.537
Concentration 10, unit not given, time-course reading M145
  Th-T fluorescence of Aβ42 with compound, mean of three wells (Fig. 7a source data): 1.534
Concentration 20, unit not given, time-course reading M129
  Th-T fluorescence of Aβ42 with compound, mean of three wells (Fig. 7a source data): 1.025
Concentration 20, unit not given, time-course reading M130
  Th-T fluorescence of Aβ42 with compound, mean of three wells (Fig. 7a source data): 1.025
Concentration 20, unit not given, time-course reading M131
  Th-T fluorescence of Aβ42 with compound, mean of three wells (Fig. 7a source data): 1.024
Concentration 20, unit not given, time-course reading M132
  Th-T fluorescence of Aβ42 with compound, mean of three wells (Fig. 7a source data): 1.024
Concentration 20, unit not given, time-course reading M133
  Th-T fluorescence of Aβ42 with compound, mean of three wells (Fig. 7a source data): 1.026
Concentration 20, unit not given, time-course reading M134
  Th-T fluorescence of Aβ42 with compound, mean of three wells (Fig. 7a source data): 1.029
Concentration 20, unit not given, time-course reading M135
  Th-T fluorescence of Aβ42 with compound, mean of three wells (Fig. 7a source data): 1.025
Concentration 20, unit not given, time-course reading M136
  Th-T fluorescence of Aβ42 with compound, mean of three wells (Fig. 7a source data): 1.027
Concentration 20, unit not given, time-course reading M137
  Th-T fluorescence of Aβ42 with compound, mean of three wells (Fig. 7a source data): 1.027
Concentration 20, unit not given, time-course reading M138
  Th-T fluorescence of Aβ42 with compound, mean of three wells (Fig. 7a source data): 1.029
Concentration 20, unit not given, time-course reading M139
  Th-T fluorescence of Aβ42 with compound, mean of three wells (Fig. 7a source data): 1.029
Concentration 20, unit not given, time-course reading M140
  Th-T fluorescence of Aβ42 with compound, mean of three wells (Fig. 7a source data): 1.019
Concentration 20, unit not given, time-course reading M141
  Th-T fluorescence of Aβ42 with compound, mean of three wells (Fig. 7a source data): 1.021
Concentration 20, unit not given, time-course reading M142
  Th-T fluorescence of Aβ42 with compound, mean of three wells (Fig. 7a source data): 1.024
Concentration 20, unit not given, time-course reading M143
  Th-T fluorescence of Aβ42 with compound, mean of three wells (Fig. 7a source data): 1.022
Concentration 20, unit not given, time-course reading M144
  Th-T fluorescence of Aβ42 with compound, mean of three wells (Fig. 7a source data): 1.02
Concentration 20, unit not given, time-course reading M145
  Th-T fluorescence of Aβ42 with compound, mean of three wells (Fig. 7a source data): 1.019
Concentration 50, unit not given, time-course reading M129
  Th-T fluorescence of Aβ42 with compound, mean of three wells (Fig. 7a source data): 0.475
Concentration 50, unit not given, time-course reading M130
  Th-T fluorescence of Aβ42 with compound, mean of three wells (Fig. 7a source data): 0.4748
Concentration 50, unit not given, time-course reading M131
  Th-T fluorescence of Aβ42 with compound, mean of three wells (Fig. 7a source data): 0.479
Concentration 50, unit not given, time-course reading M132
  Th-T fluorescence of Aβ42 with compound, mean of three wells (Fig. 7a source data): 0.4776
Concentration 50, unit not given, time-course reading M133
  Th-T fluorescence of Aβ42 with compound, mean of three wells (Fig. 7a source data): 0.4741
Concentration 50, unit not given, time-course reading M134
  Th-T fluorescence of Aβ42 with compound, mean of three wells (Fig. 7a source data): 0.4743
Concentration 50, unit not given, time-course reading M135
  Th-T fluorescence of Aβ42 with compound, mean of three wells (Fig. 7a source data): 0.479
Concentration 50, unit not given, time-course reading M136
  Th-T fluorescence of Aβ42 with compound, mean of three wells (Fig. 7a source data): 0.4773
Concentration 50, unit not given, time-course reading M137
  Th-T fluorescence of Aβ42 with compound, mean of three wells (Fig. 7a source data): 0.4745
Concentration 50, unit not given, time-course reading M138
  Th-T fluorescence of Aβ42 with compound, mean of three wells (Fig. 7a source data): 0.4775
Concentration 50, unit not given, time-course reading M139
  Th-T fluorescence of Aβ42 with compound, mean of three wells (Fig. 7a source data): 0.4782
Concentration 50, unit not given, time-course reading M140
  Th-T fluorescence of Aβ42 with compound, mean of three wells (Fig. 7a source data): 0.4767
Concentration 50, unit not given, time-course reading M141
  Th-T fluorescence of Aβ42 with compound, mean of three wells (Fig. 7a source data): 0.4755
Concentration 50, unit not given, time-course reading M142
  Th-T fluorescence of Aβ42 with compound, mean of three wells (Fig. 7a source data): 0.4776
